The structures appear in SMILES notation. The source made the active and inactive calls. How the calls were made is not given here. Where only a bound is given, the exact number is not on record here.

The test system of the test is S. cerevisiae GAL1 promoter reporter activation counterscreen. In words: yeast Gal1p promoter activation – S. cerevisiae, artefact control for yeast lifespan extension project (AID 816).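 Further: yeast growth read after 24 h of incubation with compounds.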
As usually defined, the EC50 is the concentration at which the effect is half-maximal. As to `Cc1cccc(OC(=O)n2c(=S)oc3cc(Cl)ccc32)c1`, the EC50 was > 40 µM (inactive). For `CCOC(=O)/C(=C/c1ccc(OC(=O)c2ccccc2)cc1)C(C)=O`, the EC50 was > 40 µM (inactive).

As to `CCCCSc1nc(O)c(C2OC(=O)c3c2ccc(OC)c3OC)c(=O)n1C` (stereo not drawn), the EC50 was > 40 µM (inactive). For `O=S1(=O)C=C(Sc2nnc(-c3ccccc3)o2)c2ccccc21`, the EC50 was > 40 µM (inactive). In the case of `O=C(N/N=C/c1cccc(F)c1)c1c(O)c2ccccc2[nH]c1=O`, the EC50 was > 40 µM (inactive). The result for `O=C(NNC1=Nc2cccc3cccc1c23)c1ccccc1Br` reads > 40 µM (inactive); that for `CC1Cc2ccccc2N1C(=O)Cn1cnc2ccccc2c1=O` (stereo not drawn), > 40 µM (inactive); that for `Cc1ccc(-c2nc3ccc(Cl)cc3n2OC(=O)N(C)C)cc1`, > 40 µM (inactive).

As for `CCn1c(=O)c2c(O)cc(=O)oc2c2ccccc21`, the EC50 was > 40 µM (inactive). Take `O=C(Oc1ccc2c(c1)OCO2)C12CC3CC(CC(C3)C1)C2`: the EC50 is > 40 µM (inactive).

With `O=C(O)c1c[nH]c(=S)n1-c1ccc(F)cc1`, the EC50 is > 40 µM (inactive).

Turning to `Cn1c(=O)c(=O)n(C)c2cc(S(=O)(=O)N3CCN(Cc4ccccc4)CC3)ccc21`, the EC50 is > 40 µM (inactive). Regarding `O=C1CC(c2ccccc2)CC(O)=C1C=NCCN1CCOCC1` (stereo not drawn), the EC50 is > 40 µM (inactive). The result for `COCCn1c(SCC(=O)Nc2ccc(C)cc2)nc2c(oc3ccccc32)c1=O` reads > 40 µM (inactive). In the case of `O=S(=O)(CCSc1ccccn1)c1nc2ccccc2s1`, the EC50 was > 40 µM (inactive).

In the case of `CCCCn1c(/N=C/c2ccccc2NS(=O)(=O)c2ccc(C)cc2)nc2ccccc21`, the EC50 was > 40 µM (inactive). The result for `COc1cc(OC)cc(-c2nc3ccccc3c(=O)n2OC(=O)c2ccc(C)c(C)c2)c1` reads > 40 µM (inactive). The result for `COc1ccc(/C=N/NC(=O)c2csc(-n3nc(C)cc3C(F)(F)F)n2)cc1` reads > 40 µM (inactive).

Consider `CC(C)=C1C(=O)NN(c2ccc(C)c(Cl)c2)C1=O`, for which the EC50 was > 40 µM (inactive).

Turning to `c1ccc(-c2cc(N3CCOCC3)nc3ccccc23)cc1`, the EC50 is > 40 µM (inactive). Then `CCC(C)OC(=O)C1C(c2ccccc2)C(C(=O)O)C1c1ccccc1` (stereo not drawn), with > 40 µM (inactive); and `COc1ccc(C(=O)C(CN2CCOCC2)c2ccccc2)cc1F` (stereo not drawn), with > 40 µM (inactive); and `CCCC(=O)Nc1ccc(C(=O)NNC(=S)NC(=O)c2cccs2)cc1`, with > 40 µM (inactive). Then `COc1ccccc1C(=O)Oc1ccc2c(c1)O/C(=C\c1ccncc1)C2=O`, with > 40 µM (inactive); and `COc1cc(/C=c2\sc3nc(-c4ccncc4)nn3c2=O)ccc1OC(C)=O`, with > 40 µM (inactive). Then `O=C1c2ccccc2NC(c2cnc3ccccc3n2)N1O` (stereo not drawn), with > 40 µM (inactive); and `O=c1[nH]c2ccccc2nc1C(Cl)c1ccccc1` (stereo not drawn), with > 40 µM (inactive); and `CCC(=NCCc1c(C)[nH]c2ccc(C)cc12)C1=C(O)CC(c2ccccc2)CC1=O` (stereo not drawn), with > 40 µM (inactive). `C=C1C(=O)C=C2CN(C(=O)c3ccccc3)[C@@](Cc3ccc(F)cc3)(C(=O)OC)[C@@H]12`: the EC50 was > 40 µM (inactive). Then `CCCn1c(C)cc(C(=O)COc2ncnc3sccc23)c1C`, with > 40 µM (inactive); and `O=[N+]([O-])c1c(C(Cl)Cl)nn(-c2ccccc2)c1N1CCCC1`, with > 40 µM (inactive). In the case of `CN(c1ccccc1)c1nc2ccsc2c(=O)s1`, the EC50 is > 40 µM (inactive).

On to `Cc1cc2c(c(=O)n1CCc1ccccc1)C(c1ccco1)C(C#N)=C(N)O2` (stereo not drawn), for which the EC50 is > 40 µM (inactive). Then `O=C(CSc1nc2ccccc2o1)c1cc2ccccc2oc1=O`, with > 40 µM (inactive). As for `Fc1cccc2sc(Nc3nnc(-c4ccco4)o3)nc12`, the EC50 is > 40 µM (inactive).

As for `Oc1ccc(NCc2ccccc2OCc2ccccc2F)cc1`, the EC50 is > 40 µM (inactive). Turning to `COc1ccc(C(C)NC(=O)c2ccccc2)cc1` (stereo not drawn), the EC50 was > 40 µM (inactive). Regarding `O=C(COc1ccc2ccccc2c1)Nc1cccc(C(=O)Nc2ccccc2C(=O)O)c1`, the EC50 is > 40 µM (inactive). As to `O=C(Oc1ccc([N+](=O)[O-])cc1)c1ccc2ccccc2n1`, the EC50 was > 40 µM (inactive). Then `COc1ccc(CC(=O)Nc2ccc3c(c2)CCC3)cc1S(=O)(=O)N1CCOCC1`, with > 40 µM (inactive); and `O=C(Oc1cc(=O)n2ccccc2n1)c1ccccc1`, with > 40 µM (inactive); and `COc1ccccc1-c1c(C)oc2cc(OC(=O)c3ccco3)ccc2c1=O`, with > 40 µM (inactive). On to `CCC(=O)N1CCN(CCN=CC2=C(O)CC(c3cccs3)CC2=O)CC1` (stereo not drawn), for which the EC50 was > 40 µM (inactive). Then `Cc1ccc(-c2ccc(/C=C3\C(=O)ON=C3c3ccccc3)o2)c([N+](=O)[O-])c1`, with > 40 µM (inactive). Then `O=C(COc1ccc([N+](=O)[O-])cc1)N(Cc1ccccc1)Cc1ccccc1`, with > 40 µM (inactive); and `O=C(NCCc1ccccn1)C(F)(F)C(F)(F)C(F)(F)C(F)(F)C(F)(F)C(F)(F)C(F)(F)C(F)F`, with > 40 µM (inactive). The result for `CCOc1ccc(NCc2nc3ccccc3n2CCOc2ccccc2)cc1` reads > 40 µM (inactive); that for `CC(C)OCCCNS(=O)(=O)c1ccc2ccccc2c1`, > 40 µM (inactive); that for `O=C(/C=C/c1ccccc1)Nc1ncn[nH]1`, > 40 µM (inactive). As to `O=C1c2ccccc2C(Nc2ccc3c(c2)OCCO3)N1c1ccccn1` (stereo not drawn), the EC50 was > 40 µM (inactive). Then `CC(=O)Nc1c(O)nc(SCc2ccccc2C#N)[nH]c1=O`, with > 40 µM (inactive); and `COc1ccc2c3c(cccc13)C(=O)N(O)C2=O`, with > 40 µM (inactive). The result for `O=c1c2ccccc2sn1-c1ccccc1` reads > 40 µM (inactive). The result for `Cc1ccc(/C(O)=C2\C(=O)C(=O)N(c3cc(C)on3)C2c2cccc(Cl)c2)cc1` (stereo not drawn) reads > 40 µM (inactive); that for `CCCCCn1c(=O)c(C(=O)NCc2ccccn2)c(O)c2ccccc21`, > 40 µM (inactive). In the case of `O=S1(=O)C=C(Sc2nc3ccccc3s2)c2ccccc21`, the EC50 is > 40 µM (inactive). Consider `CCOC(=O)CN1C(=O)N[C@H](c2ccc(Br)cc2)C(C(C)=O)=C1C`, for which the EC50 was > 40 µM (inactive). Then `Cc1ccc(C)c(N2CCN(S(=O)(=O)c3c(C)noc3/C=C/N(C)C)CC2)c1`, with > 40 µM (inactive); and `CC(=O)Oc1oc(-c2ccccc2)nc1C=Nc1ccccc1`, with > 40 µM (inactive). As to `O=C(/C=C/c1ccccc1)C1C(=O)c2ccccc2C1=O`, the EC50 was > 40 µM (inactive). Take `CCn1ncc(/C=N/NC(=O)c2ccc3c(c2)OCO3)c1C`: the EC50 was > 40 µM (inactive).

Take `CCN1C(=O)/C(=C/N(C(C)=O)c2ccccc2)N(c2ccccc2)C1=S`: the EC50 was > 40 µM (inactive). Then `O=C1c2ccccc2C(=O)N1Cc1nc2ccccc2c(=O)n1-c1ccc(Br)cn1`, with > 40 µM (inactive).
